Laboratory results reported in patent US20160058006A1, “COMPOSITIONS AND METHODS FOR ATTRACTING STINK BUGS” (BEDOUKIAN RESEARCH, INC., priority 2014, published 2016).

Key:
[1] = system: brown marmorated stink bug; conditions: cited from earlier work
[2] = system: individual sensillum (olfactory receptor neurons) on the brown marmorated stink bug antenna; assay: electrophysiological recording from an individual antennal sensillum in response to an olfactory stimulus; design: species or system Halyomorpha halys; conditions: 2 second stimulus, 100 μg dosage load in ethanol, versus 2 second control stimulus; FIG. 3
Excerpt: Many aspects of insect behavior are mediated by olfactory signals. These olfactory signals are detected by sensory structures called sensilla which are innervated by olfactory receptor neurons and are located on various parts of the insect body including the antenna, mouthparts and tarsi. It is possible to determine the capabilities of the peripheral sensory system by using electrophysiology methods. Basically, extracellular neural responses from the individual receptor neurons located in the sensilla on the antenna of the stinkbug can be electrically recorded in response to stimulation with various concentrations of olfactory odorants.
Details of the recording methodology for insects have been described previously. […] The action potentials within this sensillum can then be monitored and recorded. […] Electrical signals obtained from the neurons within the sensillum are band-passed filtered (300-3K Hz), amplified (1000×) and analyzed using commercial software, Autospike (Syntech, Hilversum, The Netherlands). […]
FIG. 3 represents screen shots of the analysis of the above trace (FIG. 2) from the software that used to analyze the electrophysiological data. […] In the histograms, each bar represents the number of impulses calculated for a metric of impulse size.

With CCC\C=C/C=C/C=C/C(=O)OC [methyl (2E,4E,6Z)-decatrienoate] as the molecule, how does the attraction by itself ([1]; early season trials) read?
The attraction by itself was “not attractive by itself”.

And the “cross-attraction of the brown marmorated stink bug” value ([1]; in vivo)?
The value was “cross-attractive”.

What about the attraction of adults ([1]; late in the season) of the same molecule?
Its attraction of adults is “reliably attracted”.

Which “number of impulses (activity) in stimulus histogram compared to control histogram” value [2] does the source give for ethyl (2E,4E,6Z)-decatrienoate here?
The value was “more activity in the bottom stimulus histogram as compared to the top control histogram”.
